# From patent US20200360331A1, “COMPOSITIONS COMPRISING 15-HEPE AND/OR 15-HETrE AND METHODS OF TREATING OR PREVENTING CARDIOMETABOLIC DISEASE, METABOLIC SYNDROME, AND/OR RELATED DISEASES” (Afimmune Limited, priority 2019, published 2020)
# “Also recorded” adds a separate entry of the source.
# Experiments:
# BDL-operated mice = assay: BDL study: serum biochemistry (ALT, total bilirubin); type: in vivo, C57BL/6J mice; details: for Serum ALT / Serum Total Bilirubin: BDL mice
# Experimental: BDL Surgery: On Day 0 of the study, BDL surgery was performed under pentobarbital (Kyoritsu Seiyaku, Japan) anesthesia. The mouse's hair was first shaved, the abdominal cavity cut open, and the common bile duct was ligated twice with 7-0 surgical silk. The mouse's peritoneum and the skin were closed with sutures, and the mice were transferred to a clean cage (e.g., resting cage) until recovered from anesthesia. Sham operated mice had their common bile duct exposed but not ligated.
# Sample Collection: For serum samples, non-fasting blood was collected in serum separate tubes without anticoagulant through direct cardiac puncture and centrifuged at 3,500×g for 4 minutes at 4° C. The supernatant was collected and stored at −80° C. for biochemistry (30 μL) and shipping (all the remaining). For liver samples, left lateral lobe was collected and cut into 6 pieces. Two pieces of left lateral lobe were fixed in Bouin's solution and then embedded in paraffin. Samples were stored at room temperature for histological analysis. The other 2 pieces of left lateral lobe were embedded in O.C.T. compound and quick frozen in liquid nitrogen. Samples were stored at −80° C. The remaining pieces of left lateral lobe was snap frozen in liquid nitrogen and stored at −80° C. for gene expression analyses. Right medial lobe, left medial lobe, right lobe and caudate lobe were snap frozen in liquid nitrogen and stored at −80° C. for shipping.
# [1] = test system: TGF-β induced epithelial mesenchymal transition (EMT) protein production; assay: TGF-β induced EMT protein production in HepG2 cells; type: cell-based, human; details: increasing doses for 1 hour, then 200 pM TGF-β for 48 hours, listed as 15-HEPE
# Experimental: The effects of 15-HEPE on TGF-β-induced signaling and cellular responses were determined. To test the effect of 15-HEPE on TGF-β-induced signaling, the activities of 15-HEPE to regulate TGF-β-stimulated Smad2 phosphorylation and nuclear translocation, both of which are key signaling events leading to TGF-β-induced cellular responses, were tested. One important biological activity of TGF-β is transcriptional activation of genes responsible for epithelial-mesenchymal transition (EMT), which is a crucial event in wound healing, tissue fibrosis, and cancer progression. The effect of 15-HEPE on TGFβ-induced epithelial mesenchymal transition related proteins (such as fibronectin, PAI-1, and N-cadherin etc.) expression in HepG2 and […] cells were assessed. HepG2 cells (human hepatoma cell line) were treated in increasing doses of 15-HEPE stage II in DMEM containing 0.1% of FBS for 1 hour and continually stimulated with or without 200 picomolar (pM) of TGF-β for 48 hours.
# HepG2 cells (human hepatoma cell line) were treated in increasing doses of 15-HEPE stage II in DMEM containing 0.1% of FBS for 1 hour and continually stimulated with or without 200 picomolar (pM) of TGF-β for 48 hours. The two panels shown in FIG. 18A are two separate experiments run under the same experimental conditions.
# NAFLD patients = assay: Phase IIa NAFLD study: proteomics of blood samples; type: in vivo, human
# Text: The study was planned to include 96 evaluable patients with 32 patients randomized per treatment group. […] Exploratory analysis: The exploratory analysis included analysis of lipid and metabolic parameters including total cholesterol, triglycerides, very low-density lipoprotein cholesterol (VLDL-C), low density lipoprotein cholesterol (LDL-C), high density lipoprotein cholesterol (HDL-C), non-high-density lipoprotein cholesterol (non-HDL-C), remnant-like particle cholesterol (RLP-C), fasting glucose, insulin, free fatty acids and hemoglobin A1C (HbA1C). Additional exploratory analysis included high throughput lipidomics and proteomics.
# TGF-β = assay: BDL study: quantitative RT-PCR of liver, TGF-β; type: in vivo, C57BL/6J mice; details: BDL mice liver
# Experimental: Quantitative RT-PCR: Total ribonucleic acid (RNA) was extracted from liver samples using RNAiso (Takara Bio, Japan) according to the manufacturer's instructions. One μg of RNA was reverse-transcribed using a reaction mixture containing 4.4 mM magnesium chloride (MgCl2) (F. Hoffmann-La Roche, Switzerland), 40 U RNase inhibitor (Toyobo, Japan), 0.5 mM dNTP (Promega, USA), 6.28 μM random hexamer (Promega), 5× first strand buffer (Promega), 10 mM dithiothreitol (Invitrogen, USA) and 200 U MMLV-RT (Invitrogen) in a final volume of 20 μL. The reaction was carried out for 1 hour at 37° C., followed by 5 minutes at 99° C. Real-time PCR was performed using real-time PCR DICE and TB Green™ Premix Ex Taq™ II (Takara Bio). To calculate the relative mRNA expression level, the expression of each gene (α-SMA, TIMP-1, TGF-β and Collagen Type 1) was normalized to that of reference gene 36B4 (gene symbol: Rplp0). Information regarding the PCR-primer sets and the plate layout are described in Tables 8 and 9.
# [2] = 50 mg/kg PO QD Day 0-13, Day 14
# [3] = 250 mg/kg PO QD Day 0-13, Day 14
# [4] = 500 mg/kg PO QD Day 0-13, Day 14
# [5] = BDL mice, 50, 250 and 500 mg/kg
structure (smiles),measurement,setting,value
"CC/C=C\CC(O)/C=C/C=C\C/C=C\C/C=C\CCCC(=O)O (stereo not shown) [DS102, 15-hydroxy-eicosa-5Z,8Z,11Z,13E,17Z-pentaenoic acid]",Serum ALT,BDL-operated mice; [2],402 ± 112 U/L
same,Serum Total Bilirubin,BDL-operated mice; [2],26.8 ± 6.9 mg/dL
same,Serum ALT,BDL-operated mice; [3],351 ± 155 U/L
same,Serum Total Bilirubin,BDL-operated mice; [3],23.5 ± 9.8 mg/dL
same,Serum ALT,BDL-operated mice; [4],383 ± 147 U/L
same,Serum Total Bilirubin,BDL-operated mice; [4],26.2 ± 6.1 mg/dL
same,serum ALT level vs Vehicle group,BDL-operated mice; [5],no significant differences
same,serum total bilirubin level vs Vehicle group,BDL-operated mice; [5],no significant differences
same,TGF-β induced EMT (pro-fibrotic) protein production,[1],blocks TGF-β induced EMT protein production; also recorded: blocked TGF-β induced pro-fibrotic protein production
same,TR protein,NAFLD patients; 1 g,significant reductions
same,"NASH drug development targets CCR2/5 signaling, Galectin3, AOC3",NAFLD patients; 2 g,decreased
same,"number of markers (inflammation, fibrosis, lipid metabolism, apoptosis, chemotaxis) significantly downregulated","NAFLD patients; 2 g, panel of greater than 350 protein biomarkers",over 150
same,inflammatory and pro-fibrotic proteins (protein expression),"NAFLD patients; 2 g, Bonferroni: PAI-1, TIMP-1, DPP4, TLT2, CCL16, MCP-1, SAA4, PI3/Elafin, TR, LILRB1, TNRSF11A, linear model: TLT2, AOC3, PRSS2",decreased
same,expression of multiple circulating chemokines,NAFLD patients; NAFLD patients,decreased
same,expression of multiple proteins associated with increased cardiovascular risk,NAFLD patients; NAFLD patients,decreased
same,expression of multiple tumor necrosis factor receptor superfamily members,NAFLD patients; NAFLD patients,decreased
same,expression of multiple vascular adhesion molecules,NAFLD patients; NAFLD patients,decreased
same,TGF-β mRNA expression level compared with the Vehicle group,TGF-β; 500 mg/kg,significant decrease
same,TGF-β mRNA expression level vs Vehicle group,TGF-β; DS102 treatment groups,no significant differences
same,TGF-β gene expression,"TGF-β; relative mRNA normalized to 36B4, 50 mg/kg PO QD Day 0-13",1.48 ± 0.48
same,TGF-β gene expression,"TGF-β; relative mRNA normalized to 36B4, 250 mg/kg PO QD Day 0-13",1.50 ± 0.44
same,TGF-β gene expression,"TGF-β; relative mRNA normalized to 36B4, 500 mg/kg PO QD Day 0-13",1.00 ± 0.23
